Emax and EC50 data for 24 molecules are collected here from patent US20250101041A1, “POSITIVE ALLOSTERIC MODULATORS OF THE MUSCARINIC ACETYLCHOLINE RECEPTOR M4” (Vanderbilt University, priority 2022, published 2025).

Each structure is given as a SMILES string.

The assay concerns the target T1, human mAChR M4 (Homo sapiens, UniProt P08173).
T1 construct: expressed in transfected cells; host or cells: CHO-K1 (American Type Culture Collection), stably expressing hM4 and Gqi5
T1 sequence (P08173 1-479): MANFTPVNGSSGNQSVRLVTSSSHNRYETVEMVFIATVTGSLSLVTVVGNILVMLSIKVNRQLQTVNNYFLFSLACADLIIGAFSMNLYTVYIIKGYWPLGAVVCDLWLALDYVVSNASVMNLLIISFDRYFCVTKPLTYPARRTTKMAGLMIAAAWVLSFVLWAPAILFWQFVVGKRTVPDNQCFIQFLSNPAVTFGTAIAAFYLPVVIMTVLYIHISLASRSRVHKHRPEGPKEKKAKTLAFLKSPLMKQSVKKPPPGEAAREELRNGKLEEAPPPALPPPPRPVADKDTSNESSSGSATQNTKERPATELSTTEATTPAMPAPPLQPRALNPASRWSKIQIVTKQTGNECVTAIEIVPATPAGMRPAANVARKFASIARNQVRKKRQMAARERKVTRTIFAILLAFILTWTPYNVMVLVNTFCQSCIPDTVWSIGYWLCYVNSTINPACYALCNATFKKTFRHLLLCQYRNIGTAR
As to the kind of experiment: mAChR M4 cell-based functional assay: calcium mobilization (Fluo-4, FDSS), potentiation of EC20 acetylcholine response in hM4-Gqi5 CHO-K1 cells. The following applies: human M4; for Emax at 30 µM: CHO-K1, % ACh maximum at 30 μM; for EC50: potentiation of EC20 acetylcholine response, calcium mobilization. The method in brief: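 Readout is the fluorescence-ratio rise at 1 Hz on FDSS, with PAM activity taken as concentration-dependent enhancement of the EC20 acetylcholine response, fitted four-parameter for EC50/Emax. hM4-Gqi5 CHO-K1 cells carried Fluo-4 AM dye; test compounds (11 points, 1:3) preceded EC20 acetylcholine additions at 144 s and 230 s.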

In general, Emax refers to the size of the effect at its maximum, as opposed to the concentration needed. In general, EC50 refers to the concentration needed to bring the measured effect to its halfway point. As for `Cc1cc2nc(C(F)F)cc(=O)n2nc1N1CCc2ncc(N3CCOC(C)(C)C3)cc2C1` [Compound 2-24, 2-(difluoromethyl)-7-(3-(2,2-dimethylmorpholino)-7,8-dihydro-1,6-naphthyridin-6(5H)-yl)-8-methyl-4H-pyrimido[1,2-b]pyridazin-4-one], the Emax at 30 µM amounted to 95% and the EC50 came to 51 nM.

With `Cc1cc(C)c(-c2cnc3c(c2)CN(c2nn4c(=O)ccnc4cc2C)CC3)cn1` [Compound 1-405, 7-(3-(4,6-dimethylpyridin-3-yl)-7,8-dihydro-1,6-naphthyridin-6(5H)-yl)-8-methyl-4H-pyrimido [1,2-b]pyridazin-4-one], the Emax at 30 µM amounted to 61% and the EC50 is 259 nM.

Regarding `COc1cc(C)c(-c2cnc3c(c2)CN(c2nn4c(=O)ccnc4cc2C)CC3)cn1` [Compound 1-387, 7-(3-(6-methoxy-4-methylpyridin-3-yl)-7,8-dihydro-1,6-naphthyridin-6(5H)-yl)-8-methyl-4H-pyrimido[1,2-b] pyridazin-4-one], the Emax at 30 µM came to 92% and the EC50 is 46 nM.

For `Cc1ccc(Nc2cnc3c(c2)CN(c2nn4c(=O)ccnc4cc2C)CC3)c(F)n1` [Compound 2-115, 7-(3-((2-fluoro-6-methylpyridin-3-yl)amino)-7,8-dihydro-1,6-naphthyridin-6(5H)-yl)-8-methyl-4H-pyrimido[1,2-b]pyridazin-4-one], the Emax at 30 µM worked out at 93% and the EC50 was 329 nM.

In the case of `Cc1cc(=O)n2nc(N3CCc4ncc(-c5cc(F)c(F)cc5F)cc4C3)c(C)c(C)c2n1` [Compound 1-200, 2,8,9-trimethyl-7-(3-(2,4,5-trifluorophenyl)-7,8-dihydro-1,6-naphthyridin-6(5H)-yl)-4H-pyrimido[1,2-b] pyridazin-4-one], the Emax at 30 µM was 84% and the EC50 worked out at 531 nM.

As for `Cc1ccc(-c2cnc3c(c2)CN(c2nn4c(=O)cc(C)nc4c(C)c2C)CC3)cn1` [Compound 1-82, 2,8,9-trimethyl-7-(3-(6-methylpyridin-3-yl)-7,8-dihydro-1,6-naphthyridin-6(5H)-yl)-4H-pyrimido[1,2-b]pyridazin-4-one], the Emax at 30 µM was 100% and the EC50 amounted to 145 nM.

With `Cc1cc2nc(C(=O)N3CC4(COC4)C3)cc(=O)n2nc1N1CCc2ncc(C(F)(F)F)cc2C1` [Compound 1-44, 8-methyl-2-(2-oxa-6-azaspiro[3.3]heptane-6-carbonyl)-7-(3-(trifluoromethyl)-7,8-dihydro-1,6-naphthyridin-6(5H)-yl)-4H-pyrimido[1,2-b]pyridazin-4-one], the Emax at 30 µM is 92% and the EC50 was determined as 1110 nM.

Regarding `Cc1cc(F)c(F)cc1-c1cnc2c(c1)CN(c1nn3c(=O)ccnc3c(C)c1C)CC2` [Compound 1-446, 7-(3-(4,5-difluoro-2-methylphenyl)-7,8-dihydro-1,6-naphthyridin-6(5H)-yl)-8,9-dimethyl-4H-pyrimido[1,2-b]pyridazin-4-one], the Emax at 30 µM was found to be 85% and the EC50 is 574 nM.

With `Cc1cc(=O)n2nc(N3CCc4ncc(-c5ccnnc5)cc4C3)c(C)c(C)c2n1` [Compound 1-132, 2,8,9-trimethyl-7-(3-(pyridazin-4-yl)-7,8-dihydro-1,6-naphthyridin-6(5H)-yl)-4H-pyrimido[1,2-b]pyridazin-4-one], the Emax at 30 µM was determined as 92% and the 50% effective concentration (EC50) is 798 nM.

Consider `Cc1cc2nccc(=O)n2nc1N1CCc2ncc(-c3ncsc3C)cc2C1` [Compound 1-393, 8-methyl-7-(3-(5-methylthiazol-4-yl)-7,8-dihydro-1,6-naphthyridin-6(5H)-yl)-4H-pyrimido[1,2-b]pyridazin-4-one], for which the Emax at 30 µM was found to be 83% and the EC50 was 1050 nM.

Consider `COCc1cc(=O)n2nc(N3CCc4ncc(-c5cccnc5)cc4C3)c(C)cc2n1` [Compound 1-365, 2-(methoxymethyl)-8-methyl-7-(3-(pyridin-3-yl)-7,8-dihydro-1,6-naphthyridin-6(5H)-yl)-4H-pyrimido[1,2-b] pyridazin-4-one], for which the Emax at 30 µM came to 69% and the EC50 came to 325 nM.

On to `CCc1ccncc1-c1cnc2c(c1)CN(c1nn3c(=O)ccnc3c(C)c1C)CC2` [Compound 1-96, 7-(3-(4-ethylpyridin-3-yl)-7,8-dihydro-1,6-naphthyridin-6(5H)-yl)-8,9-dimethyl-4H-pyrimido[1,2-b]pyridazin-4-one], for which the Emax at 30 µM was 63% and the EC50 is 37 nM.

Turning to `COc1ccncc1-c1cnc2c(c1)CN(c1nn3c(=O)cc(C)nc3cc1C)CC2` [Compound 1-295, 7-(3-(4-methoxypyridin-3-yl)-7,8-dihydro-1,6-naphthyridin-6(5H)-yl)-2,8-dimethyl-4H-pyrimido[1,2-b]pyridazin-4-one], the Emax at 30 µM was 96% and the EC50 was found to be 89 nM.

Regarding `Cc1cc2nc(C)c(C)c(=O)n2nc1N1CCc2ncc(N3CCCn4nccc43)cc2C1` [Compound 2-13, 7-(3-(6,7-dihydropyrazolo[1,5-a]pyrimidin-4(5H)-yl)-7,8-dihydro-1,6-naphthyridin-6(5H)-yl)-2,3,8-trimethyl-4H-pyrimido[1,2-b]pyridazin-4-one], the Emax at 30 µM is 82% and the EC50 was determined as 27 nM.

Turning to `Cc1c(N2CCc3ncc(-c4ccccc4Cl)cc3C2)nn2c(=O)ccnc2c1C` [Compound 1-267, 7-(3-(2-chlorophenyl)-7,8-dihydro-1,6-naphthyridin-6(5H)-yl)-8,9-dimethyl-4H-pyrimido[1,2-b]pyridazin-4-one], the Emax at 30 µM is 89% and the EC50 was 183 nM.

As for `COc1ccsc1-c1cnc2c(c1)CN(c1nn3c(=O)cc(C)nc3c(C)c1C)CC2` [Compound 1-303, 7-(3-(3-methoxythiophen-2-yl)-7,8-dihydro-1,6-naphthyridin-6(5H)-yl)-2,8,9-trimethyl-4H-pyrimido[1,2-b]pyridazin-4-one], the Emax at 30 µM was 96% and the EC50 was found to be 192 nM.

`Cc1cc2nccc(=O)n2nc1N1CCc2ncc(-c3ccccc3C(F)F)cc2C1` [Compound 1-434, 7-(3-(2-(difluoromethyl)phenyl)-7,8-dihydro-1,6-naphthyridin-6(5H)-yl)-8-methyl-4H-pyrimido[1,2-b]pyridazin-4-one]: the Emax at 30 µM was 90% and the EC50 was found to be 238 nM.

As to `Cc1cc(=O)n2nc(N3CCc4ncc(-c5ccc(C)c(F)c5)cc4C3)c(C)c(C)c2n1` [Compound 1-196, 7-(3-(3-fluoro-4-methylphenyl)-7,8-dihydro-1,6-naphthyridin-6(5H)-yl)-2,8,9-trimethyl-4H-pyrimido[1,2-b]pyridazin-4-one], the Emax at 30 µM stood at 80% and the EC50 came out at 1130 nM.

For the molecule `COc1cc(-c2cnc3c(c2)CN(c2nn4c(=O)ccnc4cc2C)CC3)ccc1F` [Compound 1-51, 7-(3-(4-fluoro-3-methoxyphenyl)-7,8-dihydro-1,6-naphthyridin-6(5H)-yl)-8-methyl-4H-pyrimido[1,2-b]pyridazin-4-one], the Emax at 30 µM worked out at 85% and the EC50 came to 293 nM.

On to `COCc1cc(=O)n2nc(N3CCc4ncc(-c5cnccc5OC)cc4C3)c(C)cc2n1` [Compound 1-384, 2-(methoxymethyl)-7-(3-(4-methoxypyridin-3-yl)-7,8-dihydro-1,6-naphthyridin-6(5H)-yl)-8-methyl-4H-pyrimido [1,2-b]pyridazin-4-one], for which the Emax at 30 µM was 83% and the EC50 is 1030 nM.

Take `Cc1cc(=O)n2nc(N3CCc4ncc(-c5ccnn5C5COC5)cc4C3)c(C)c(C)c2n1` [Compound 1-176, 2,8,9-trimethyl-7-(3-(1-(oxetan-3-yl)-1H-pyrazol-5-yl)-7,8-dihydro-1,6-naphthyridin-6(5H)-yl)-4H-pyrimido[1,2-b]pyridazin-4-one]: the Emax at 30 µM was 74% and the EC50 was 4840 nM.

Regarding `Cc1cc2nccc(=O)n2nc1N1CCc2ncc(-c3ccc4nccn4c3)cc2C1` [Compound 1-53, 7-(3-(imidazo[1,2-a]pyridin-6-yl)-7,8-dihydro-1,6-naphthyridin-6(5H)-yl)-8-methyl-4H-pyrimido[1,2-b]pyridazin-4-one], the Emax at 30 µM was 75% and the EC50 stood at 699 nM.

For `COCc1cc(=O)n2nc(N3CCc4ncc(-c5cc(F)c(F)cc5F)cc4C3)c(C)cc2n1` [Compound 1-335, 2-(methoxymethyl)-8-methyl-7-(3-(2,4,5-trifluorophenyl)-7,8-dihydro-1,6-naphthyridin-6(5H)-yl)-4H-pyrimido[1,2-b]pyridazin-4-one], the Emax at 30 µM turned out to be 68% and the EC50 turned out to be 576 nM.

As for `Cc1cc(=O)n2nc(N3CCc4ncc(-c5cnn(C6CC6)c5)cc4C3)c(C)c(C)c2n1` [Compound 1-183, 7-(3-(1-cyclopropyl-1H-pyrazol-4-yl)-7,8-dihydro-1,6-naphthyridin-6(5H)-yl)-2,8,9-trimethyl-4H-pyrimido[1,2-b]pyridazin-4-one], the Emax at 30 µM worked out at 79% and the EC50 was found to be 582 nM.
